Where “and” joins values, the source holds several entries; their conditions need not be identical. Equal values may be shown once. Read-outs that look alike come from different tables or passages of the source.
Key:
[1] = test system: Shionogi mouse mammary carcinoma cells; experiment: In vitro androgenic/antiandrogenic activity: proliferation of Shionogi cells with or without DHT; format: cell-based
[2] = test system: castrated (CX) immature male rats; experiment: Systemic androgenic (agonistic) activity in orchidectomized (CX) immature male rats; format: in vivo, rat
Experimental: Immature male rats (Crl:CD(SD)Br) 22 to 24-day old weighting 60-80 g at start of treatment were obtained from Charles-River, Inc. (St-Constant, Quebec, Canada) and housed up to 5 per cage in plastic bins in a temperature (23±1° C.)- and light (12 h light/day, lights on at 7 h15)-controlled environment. The rats were fed rodent chow and tap water ad libitum. […] The day following their arrival, the designed animals were orchidectomized (CX) under Isoflurane anesthesia (Study Day 1) via the scrotal route and were then randomly assigned to groups of 3 to 5 animals. At the time of orchidectomy, one silastic implant of dihydrotestosterone (DHT; 1 cm length of pure DHT in silastic tubing having inner and outer diameter of 0.078 and 0.125 inches, respectively), was inserted subcutaneously in the dorsal area of animals assigned to the evaluation of antiandrogenic activity. In the case of intact animal experiments, the orchidectomy and the silastic implant installation are omitted.
Tested compounds were administered orally once daily for 7 days from Study Day 2 to Study Day 8 at doses generally ranging from 0.1 and 0.5 mg/animal. Compounds were either solubilized in dimethylsulfoxide (DMSO, 10% final concentration) and were administered as a solution/suspension in 0.9% NaCl-1% gelatin or were administered as suspensions in 0.4% aqueous methylcellulose. Animals of the control groups received the corresponding vehicle alone during the 7-day period. Some animals were treated with the antiandrogen Flutamide or Casodex as reference. The animals under isoflurane anesthesia were killed by cervical dislocation on day 9 of the study, approximately 24 h after the last dosing. The ventral prostate, seminal vesicles and bulbocavernosus muscles were rapidly dissected and weighed.
For calculations with intact animals, control DHT is replaced by control intact and the % stimulation is subtracted by 100%. W is the weight of the prostate, seminal vesicles or bulbocavernosus muscles. Discussion

Human Androgen Receptor = Human Androgen Receptor (Homo sapiens (Human), UniProt P10275); experiment: Androgen receptor assay: [3H]R1881 displacement, cytosol of HEK-293 cells transfected with hAR (hydroxylapatite assay); format: binding; settings: for Human Androgen Receptor Binding RBA (%) R1881 = 100: relative binding affinity; for times more potent than OH-flutamide on the human AR (RBA ratio): versus hydroxyflutamide
Chain of Human Androgen Receptor (P10275 whole entry): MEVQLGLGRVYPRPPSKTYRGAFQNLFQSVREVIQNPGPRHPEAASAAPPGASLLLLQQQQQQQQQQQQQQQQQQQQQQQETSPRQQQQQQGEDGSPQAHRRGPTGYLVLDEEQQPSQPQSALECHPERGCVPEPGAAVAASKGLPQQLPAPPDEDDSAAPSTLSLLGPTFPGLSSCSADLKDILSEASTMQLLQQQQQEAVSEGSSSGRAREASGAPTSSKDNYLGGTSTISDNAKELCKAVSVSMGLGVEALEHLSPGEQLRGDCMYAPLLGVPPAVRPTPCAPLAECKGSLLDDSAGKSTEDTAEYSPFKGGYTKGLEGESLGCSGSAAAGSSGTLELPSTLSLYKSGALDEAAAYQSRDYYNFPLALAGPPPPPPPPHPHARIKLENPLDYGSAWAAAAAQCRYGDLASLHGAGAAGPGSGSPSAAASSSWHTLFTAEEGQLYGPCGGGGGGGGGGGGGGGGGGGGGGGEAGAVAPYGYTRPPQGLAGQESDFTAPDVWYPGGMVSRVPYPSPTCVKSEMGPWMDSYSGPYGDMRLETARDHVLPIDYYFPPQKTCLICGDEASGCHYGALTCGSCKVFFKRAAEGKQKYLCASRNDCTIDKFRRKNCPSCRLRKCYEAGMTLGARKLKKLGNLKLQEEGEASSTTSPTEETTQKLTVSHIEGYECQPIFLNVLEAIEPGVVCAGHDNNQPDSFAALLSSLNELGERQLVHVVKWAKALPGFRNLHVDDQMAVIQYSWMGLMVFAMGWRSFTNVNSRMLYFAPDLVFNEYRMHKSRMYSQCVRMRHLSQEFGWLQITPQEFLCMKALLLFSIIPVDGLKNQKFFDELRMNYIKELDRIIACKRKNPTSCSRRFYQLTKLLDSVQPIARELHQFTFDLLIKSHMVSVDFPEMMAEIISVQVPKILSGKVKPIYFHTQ

[3] = Mus musculus, read-out: Shionogi Antiandrogenic Activity IC50, DHT (0.3 nM)-stimulated cell number
[4] = 0.1 mg/rat/po, 7 days, bulbocavernosus muscles weight
[5] = 0.1 mg/rat/po, 7 days, seminal vesicles weight
[6] = 0.1 mg/rat/po, 7 days, ventral prostate weight
[7] = read-out: Shionogi Antiandrogenic Activity IC50, DHT (0.3 nM)-stimulated cell number

SMILES | IC50 [1, 3] [nM] | CX Agonistic activity % Stimulation Bulbo [2, 4] | CX Agonistic activity % Stimulation SV [2, 5] | CX Agonistic activity % Stimulation Prostate [2, 6] | Human Androgen Receptor Binding RBA (%) R1881 = 100 (Human Androgen Receptor; […]) | Human Androgen Receptor Binding RBA (%) R1881 = 100 (Human Androgen Receptor; transfected cells) | further results
Cc1c(N2C(=O)C(C)(C)N(CCCOc3ccc(-c4ccncc4F)cc3)C2=S)ccc(C#N)c1C(F)(F)F [EM-8974] | 112 | 139% | 24% | 61% | 41.9% |  | 
Cc1c(N2C(=O)C(C)(C)N(CCCOc3ccc(-c4ccncc4)cc3F)C2=S)ccc(C#N)c1C(F)(F)F [EM-8793] | 48.2 | 139% | 42% | 29% |  | 412% | 
Cc1c(N2C(=O)N(CCCOc3ccc(-c4ccncc4)c(F)c3)C(C)(C)C2=O)ccc(C#N)c1Cl [EM-9253] | 29.9 | 114±18% and 114 ± 18 (n = 2) % | 18 ± 2 (n = 2) % | 34 ± 1 (n = 2) % | 125% |  | times more potent than OH-flutamide on the human AR (RBA ratio) (Human Androgen Receptor): 595 times
Cc1c(N2C(=O)N(CCCOc3ccc(-c4cc[n+]([O-])cc4F)cc3)C(C)(C)C2=O)ccc(C#N)c1Cl [EM-9318] | 100 | 92 ± 27 (n = 2) % | 14 ± 9 (n = 2) % | 42 ± 3 (n = 2) % |  | 46.1% | 
Cc1c(N2C(=O)C(C)(C)N(CCCOc3ccc(-c4cccnc4)cc3)C2=S)ccc(C#N)c1Cl [EM-8656] | > 100 | 73% | 24% | 38% | 477 ± 16 (n = 2) % |  | 
Cc1c(N2C(=O)C(C)(C)N(CCCOc3ccc(-c4ccncc4)cc3C(F)(F)F)C2=S)ccc(C#N)c1C(F)(F)F [EM-8772] |  | 104% | 15% | 29% |  | 2.6% | IC50 ([1]; Mus musculus, DHT (0.3 nM)-stimulated cell number, read-out: Shionogi Antiandrogenic Activity IC50): 137 nM
Cc1ccc2cc(OCCCN3C(=O)N(c4ccc(C#N)c(C(F)(F)F)c4)C(=O)C3(C)C)ccc2n1 [EM-9090] | 33.1 | 11% | 0% | 1% | 2.5% |  | 
Cc1c(N2C(=O)C(C)(C)N(CCCOc3ccc(-c4cc[n+]([O-])cc4)c(Cl)c3)C2=S)ccc(C#N)c1Cl [EM-9036] | > 100 |  |  |  | 131% |  | CX Agonistic activity % Stimulation Bulbo ([2]; 0.02 mg/rat po): 142 (0.02 mg/rat) %; CX Agonistic activity % Stimulation Prostate ([2]; 0.02 mg/rat po): 24 (0.02 mg/rat) %; CX Agonistic activity % Stimulation SV ([2]; 0.02 mg/rat po): 24 (0.02 mg/rat) %
Cc1c(N2C(=O)N(CCCOc3ccc(-c4cc[n+]([O-])cc4)cc3C(F)(F)F)C(C)(C)C2=O)ccc(C#N)c1Cl [EM-9319] | 97.8 | 110 ± 10 (n = 2) % | 17 ± 10 (n = 2) % | 39 ± 2 (n = 2) % | 9.6% |  | 
Cc1c(N2C(=O)N(CCCOc3ccc(-c4ccncc4)cc3C(F)(F)F)C(C)(C)C2=O)ccc(C#N)c1Cl [EM-9309] | 66.9 | 107±9% and 107 ± 9 (n = 2) % | 24 ± 2 (n = 2) % | 36 ± 1 (n = 2) % | 157% |  | % of stimulation at 10^−7M on basal Shionogi cells ([1]; basal (no DHT), 10^−7M): 13%; times more potent than OH-flutamide on the human AR (RBA ratio) (Human Androgen Receptor): 748 times
Cc1c(N2C(=O)C(C)(C)N(CCCOc3ccc(Oc4ccc(Cl)nc4)nc3)C2=S)ccc(C#N)c1Cl [EM-8828] | 96.5 | 161% | 31% | 40% | 112% |  | 
CC1(C)C(=O)N(c2ccc(C#N)c(Cl)c2)C(=O)N1CCCOc1ccc(-c2cc[n+]([O-])cc2)c(F)c1 [EM-9117] | 31 ± 10 |  |  |  | 2.5 ± 0.5 (n = 5) % |  | 
CC1(C)C(=O)N(c2ccc(C#N)c(Cl)c2)C(=S)N1CCCOc1ccc(-c2cc[n+]([O-])cc2)cc1 [EM-9120] | 9.2 ± 0.8 |  |  |  | 106% |  | 
CC1(C)C(=O)N(c2ccc(C#N)c(Cl)c2)C(=O)N1CCCOc1ccc(-c2ccncc2)c(F)c1 [EM-9115] | 18 ± 4 |  |  |  | 12.5 ± 2.3 (n = 6) % |  | 
CC1(C)C(=O)N(c2ccc(C#N)c(F)c2)C(=S)N1CCCOc1ccc(-c2ccncc2)c(F)c1 [EM-9011] | 6.6 ± 0.8 |  |  |  |  | 43 ± 9 (n = 2) % | 
CC1(C)C(=O)N(c2ccc(C#N)c(Cl)c2)C(=S)N1CCCOc1ccc(-c2ccncc2)c(F)c1 [EM-9037] | 8.7 |  |  |  |  | 1040 ± 350 (n = 2) % | 

SMILES | IC50 [1, 3] [nM] | CX Agonistic activity % Stimulation Bulbo [2, 4] | CX Agonistic activity % Stimulation SV [2, 5] | CX Agonistic activity % Stimulation Prostate [2, 6] | Human Androgen Receptor Binding RBA (%) R1881 = 100 (Human Androgen Receptor; […]) | Human Androgen Receptor Binding RBA (%) R1881 = 100 (Human Androgen Receptor; transfected cells) | further results
CC1(C)C(=O)N(c2ccc(C#N)c(Cl)c2)C(=O)N1CCCOc1ccc(-c2cc[n+]([O-])cc2)cc1 [EM-9118] | 15 ± 3 |  |  |  | 2.2 ± 0.4 (n = 6) % |  | 
CC1(C)C(=O)N(c2ccc(C#N)c(Cl)c2)C(=O)N1CCCOc1ccc(-c2ccncc2F)cc1 [EM-9267] | 16 |  |  |  |  | 5.5% | 
CC1(C)C(=O)N(c2ccc(C#N)c(C(F)(F)F)c2)C(=S)N1CCCOc1ccc(-c2cc[n+]([O-])cc2)cc1.Cl [EM-9043] |  |  |  |  | 175% |  | stimulation at 10^−7M on basal Shionogi cell proliferation (in words) ([1]; basal (no DHT), 10^−7M): none of these compounds has any activity; IC50 [1, 7]: 3.4 nM
CC1(C)C(=O)N(c2ccc(C#N)c(C(F)(F)F)c2)C(=O)N1Cc1ccc(-c2cccnc2)cc1 [EM-9200] | 66 |  |  |  |  | 2.5% | 
CC1(C)C(=O)N(c2ccc(C#N)c(C(F)(F)F)c2)C(=O)N1Cc1ccc(-c2cc[n+]([O-])cc2)c(F)c1 [EM-9228] | 53 |  |  |  | 0.4% |  | 
CC1(C)C(=O)N(c2ccc(C#N)c(C(F)(F)F)c2)C(=O)N1Cc1ccc(-c2ccncc2)c(F)c1 [EM-9227] | 16.4 |  |  |  | 4.9% |  | 
CC1(C)C(=O)N(c2ccc(C#N)c(C(F)(F)F)c2)C(=S)N1CCCOc1ccc(-c2ccnc(F)c2)cc1 [EM-8923] | 48 |  |  |  |  | 136% | 
CC1(C)C(=O)N(c2ccc(C#N)c(C(F)(F)F)c2)C(=O)N1CCCOc1ccc(-c2ccncc2)cn1 [EM-9114] | 19.2 ± 0.3 |  |  |  | 7.9 ± 4.1 (n = 3) % |  | 
CC1(C)C(=O)N(c2ccc(C#N)c(C(F)(F)F)c2)C(=S)N1CCCOc1ccc(-c2ccncc2)cn1 [EM-9050] | 12 ± 2 |  |  |  | 317 ± 122 (n = 2) % |  | 
CC1(C)C(=O)N(c2ccc(C#N)c(F)c2)C(=O)N1CCCOc1ccc(-c2cc[n+]([O-])cc2)cc1 [EM-9176] | > 100 |  |  |  |  | ~0.1% | 
CC1(C)C(=O)N(c2ccc(C#N)c(C(F)(F)F)c2)C(=O)N1CCCOc1ccc(-c2cc[n+]([O-])cc2)c(F)c1 [EM-9067] | 12 |  |  |  |  | 2.4% | 
CC1(C)C(=O)N(c2ccc(C#N)c(C(F)(F)F)c2)C(=S)N1CCCOc1ccc(-c2ccncc2)cc1C(F)(F)F [EM-8900] | 2.6 to 4.3 |  |  |  | 130 ± 60 (n = 2) % |  | stimulation at 10^−7M on basal Shionogi cell proliferation (in words) ([1]; basal (no DHT), 10^−7M): none of these compounds has any activity; IC50 [1, 7]: 3.8 nM
N#Cc1ccc(N2C(=O)N(CCCOc3ccc(-c4ccncc4)c(F)c3)C3(CCCC3)C2=O)cc1Cl [EM-9201] | 9.7 |  |  |  | 70.8% |  | 
CC1(C)C(=O)N(c2ccc(C#N)c(C(F)(F)F)c2)C(=S)N1CCCCOc1ccc(-c2cccnc2)cc1 [EM-9070] | 14.9 |  |  |  |  | 191% | 
CC1(C)C(=O)N(c2ccc(C#N)c(C(F)(F)F)c2)C(=S)N1CCCOc1ccc(-c2ccncc2)c(F)c1 [EM-8851] | 77 ± 20 |  |  |  |  | 3310% and 3310 ± 1780 (n = 2) % | 
CC1(C)C(=O)N(c2ccc(C#N)c(C(F)(F)F)c2)C(=O)N1CCCOc1ccc(-c2ccncc2)cc1F [EM-9055] | 10.6 |  |  |  |  | 7.3% | 
